Structures can show the parent of a compound that is named as a salt.
tested on: apomorphine-induced climbing; test: climbing mice assay: block of apomorphine-induced climbing (antipsychotic activity); assay type: in vivo, CK-1 male mice; settings: Mus musculus, ip, read-out: Antipsychotic Activity ED50
Description: The subject CK-1 male mice (23-27 grams) are […] under standard laboratory conditions. The mice are individually placed in wire mesh stick cages (4"×4"10") and are allowed one hour for adaptation and exploration of the new environment.
For evaluation of climbing, 3 readings are taken at 10, 20, and 30 minutes after apomorphine administration according to the following scale:
2 paws on wall (rearing)
4 paws on the wall (full climbing)
Mice consistently climbing before the injections of apomorphine will be discarded.
With full-developed apomorphine climbing, the animals are hanging onto the cage walls, rather motionless, over long periods of time. By contrast, climbs due to mere motor stimulation usually only last a few seconds.
The climbing scores are individually totaled (maximal score: 6 per mouse over 3 readings) and the total score of the control group (vehicle intraperitoneally-apomorphine subcutaneously) is set 100%.

O=C(CCCN1CCC(O)(c2ccc(Cl)cc2)CC1)c1ccc(F)cc1 [Haloperidol, reference compound] gave an ED50 of 0.11 mg/kg.

same assay, conditions: Mus musculus, ip; mice; intraperitoneal 30 minutes prior to apomorphine 1.5 mg/kg s.c.; climbing readings at 10, 20, 30 minutes; linear regression; read-out: Antipsychotic Activity ED50

COc1ccccc1N1CCN(C/C=C/CN2C(=O)c3ccccc3C2=O)CC1 [E-1-(N-Phthalimido)-4-[4-(2-methoxyphenyl)-1-piperazinyl]-2-butene hydrochloride hemihydrate] and COc1ccccc1N1CCN(C/C=C\CN2C(=O)c3ccccc3C2=O)CC1 [Z-1-(N-Phthalimido)-4-[4-(2-methoxyphenyl)-4-piperazinyl)]-2-butene dihydrochloride] are within 1.5-fold of each other in ED50: 7.3 mg/kg for the first, 10.3 mg/kg for the second.

Compared with CCN1CCCC1CNC(=O)c1cc(S(N)(=O)=O)ccc1OC (stereo not drawn) [Sulpiride, reference compound], COc1ccccc1N1CCN(C/C=C\CN2C(=O)CSC2=O)CC1 [Z-1-(3-Thiazolidine-2,4-dione)-4-[4-(2-methoxyphenyl)-1-piperazinyl]-2-butene dihydrochloride] is 4.4-fold higher in ED50: 4.5 mg/kg for the first, 19.8 mg/kg for the second.

Work on COc1ccccc1N1CCN(C/C=C\CN2C(=O)c3ccc(Cl)cc3C2=O)CC1 [Z-1-N-(4-Chlorophthalimido)-4-[4-(2-methoxyphenyl)-1-piperazinyl]-2-butene dihydrochloride hemihydrate] yielded an ED50 of 15.4 mg/kg.

Source: US5334715A, “1-piperazinyl-2-butenes and -2-butynes” (Hoechst-Roussel Pharmaceuticals Inc., priority 1993, dated 1994)
